Laboratory results from paper PMC6767236, “Selective Cannabinoid 2 Receptor Agonists as Potential Therapeutic Drugs for the Treatment of Endotoxin-Induced Uveitis” (Molecules, 2019).

How the values were obtained:
[1] = tested on: leukocyte-endothelial adhesion in the iridial microcirculation; assay: Endotoxin-induced uveitis (EIU), intravital microscopy, CB2R-/- mice; assay type: in vivo; conditions: topical 1.5% w/v, 6 h after LPS
From the text: Male BALB/c wild-type (WT; 25-30 g; Charles River, QC, Canada) and age-matched (6–8 weeks) CB2R knockout mice (CB2R^-/-) were used for experiments. CB2R^-/- mice were obtained by crossing male C57BL/6J CB2R^-/- mice (strain B6.129P2-Cnr2tm1Dgen/J; Jackson Laboratory, Bar Harbor, ME, USA) with inbred BALB/c female mice (Charles River) for ten generations. Heterozygote mice from separate parents were then bred for a homozygote knock-out of the CB2R^-/-. CB2R^-/- was confirmed via genotyping using DNA extracted from ear punches and the Accustart II Mouse Genotyping Kit (Quanta Biosciences, MD, USA). […]
IVM was conducted as previously described in Toguri et al. (2014). […] The iridial microcirculation was observed using an Olympus OV100 Small Animal Imaging System (Olympus, Tokyo, Japan), which contains an MT-20 light source, fluorescence excitation from a xenon lamp (150 W) and an excitation filter for rhodamine-6G (excitation 515–560 nm, emission 590 nm). Images were captured in real-time by a black and white DP70 CCD C-mount camera and digitally recorded using HCImage software (Hamamatsu, Herrsching, Germany).
During IVM animals were placed on a heating pad in a stereotactic frame, and Tear-Gel® (Novartis Pharmaceuticals Canada Inc., Dorval, QC, Canada) was applied to their cornea. […] Two to four videos of each quadrant were recorded for 30 s each. […]

[2] = tested on: neutrophils from CB2R-/- mice; assay: Transwell neutrophil migration assay towards CXCL2, CB2R-/- neutrophils; assay type: cell-based, mouse; conditions: 10 nM CXCL2
Procedure: As described previously, mouse neutrophils were isolated from the bone marrow of mice. Mice were euthanized, femur and tibia were dissected and flushed with ice-cold 1× Hanks balanced salt solution (HBSS; supplemented with […], pH7.5, and 0.5 mM EDTA; Invitrogen) through a sterile filter (70 μm). The suspension was centrifuged at 300× g for 12 min at 4 °C. EasySep™ neutrophil enrichment kit ([…] Technologies Inc., Vancouver, BC, Canada) was used to isolate neutrophils according to the manufacturer’s instructions. The isolated neutrophils were then washed once and the pelleted cells were suspended in RPMI (Invitrogen) containing 1% heat-inactivated fetal bovine serum (FBS, Invitrogen) and used immediately for neutrophil migration experiments or processed for adoptive transfer. The murine neutrophil isolation protocol routinely yields cell suspensions that are >95% pure and viable, as determined by cresyl violet and trypan blue exclusion, respectively.
Neutrophil migration assays were performed using a Transwell migration assay. Isolated neutrophils (1 × 10^5 cells/100 μL) from WT or CB2R^-/- mice were incubated with vehicle (0.01% DMSO), or various concentrations of RO8671304 or RO6851228 at 37 °C, 5% CO2 for 30 min. […] The number of migrated neutrophils was then determined using ImageJ. […]

pKa = assay type: physicochemical; conditions: read-out: pKa (basic)
[3] = parameters: method as in earlier work; conditions: * previously published, cited from earlier work

CC(C)(C)c1nc(N2CC[C@H](O)C2)c2nnn(Cc3nnnn3C3CC3)c2n1 [RO6871304, (3S)-1-{5-tert-butyl-3-[(1-cyclopropyl-1H-tetrazol-5-yl)methyl]-3H-[1,2, 3]triazolo[4,5-d]pyrimidin-7-yl}pyrrolidin-3-ol]
leukocyte adherence in CB2R-/- mice with EIU [1]: no significant reduction in leukocyte adherence
CXCL2-induced migration of CB2R-/- neutrophils [2]: did not inhibit migration
pKa (pKa): 2.7
Thermodynamic Solubility in FaSSIF (pH 6.5) ([3]; FaSSIF pH 6.5): 80 μg/mL
Thermodynamic Solubility in FeSSIF (pH 5.5) ([3]; FeSSIF pH 5.5): 273 μg/mL
Thermodynamic Solubility in Aqueous Buffer (pH 6.5) ([3]; aqueous phosphate buffer pH 6.5): 56 μg/mL
